# Measured values reported in patent US9107900B2, “Use of dronedarone for the preparation of a medicament for use in the prevention of cardiovascular hospitalization or of morality” (SANOFI, priority 2008, dated 2015).
# Counter-ions that a name gives are not always drawn.
# System: patients having a history of atrial fibrillation or atrial flutter
# Assay: prospective, multinational, multicentre, double-blind clinical study versus placebo: cardiovascular hospitalizations and mortality
# Type: in vivo, human
# Settings: for HR (95% CI): cardiovascular hospitalization and death / decrease of cardiovascular hospitalization and death: vs placebo
# Method: The patients had to have a history of atrial fibrillation or flutter and/or could be in normal sinus rhythm or in atrial fibrillation or flutter at inclusion.
# The patient recruitment was carried out by taking into account the following inclusion criteria:
# • 1) One of the following risk factors had to be present: • age equal to or greater than 70 years, • hypertension (taking antihypertensives of at least two different classes), • diabetes, • history of cerebral stroke (transient ischemic event or completed cerebral stroke) or of systemic embolism, • left atrial diameter greater than or equal to 50 mm measured by echocardiography, • left ventricular ejection fraction less than 40%, measured by two-dimensional echography; or • age equal to or above 70, or even above 75, possibly combined with at least one of the risk factors below: • hypertension (taking antihypertensives of at least two different classes), • diabetes, • history of cerebral stroke (transient ischemic event or completed cerebral stroke) or of systemic embolism, • left atrial diameter greater than or equal to 50 mm measured by echocardiography, • left ventricular ejection fraction less than 40%, measured by two-dimensional echography; • 2) availability of an electrocardiogram carried out during the past 6 months in order to document the presence or the history of atrial fibrillation or flutter; • 3) availability of an electrocardiogram carried out during the past 6 months in order to document the presence or absence of normal sinus rhythm. […] Criteria Related to a Cardiac Condition: • Patients in permanent atrial fibrillation • Patients in unstable hemodynamic condition such as acute pulmonary edema within 12 hours prior to start of study medication; cardiogenic shock; treatment with IV pressor agents; patients on respirator; congestive heart failure of stage NYHA IV within the last 4 weeks; uncorrected, hemodynamically significant primary obstructive valvular disease; hemodynamically significant obstructive cardomyopathy; a cardiac operation or revascularization procedure within 4 weeks preceding randomization • Planned major non-cardiac or cardiac surgery or procedures including surgery for valvular heart disease, coronary artery bypass graft (CABG), percutaneous coronary intervention (PCI), or on urgent cardiac transplantation list • Acute myocarditis or constrictive pericarditis • Bradycardia<50 bpm and/or PR-interval>0.28 sec on the last 12-lead ECG. • Significant sinus node disease (documented pause of 3 seconds or more) or 2nd or 3rd degree atrioventricular block (AV-block) unless treated with a pacemaker. Criteria Related to Concomitant Medications:
# Need of a concomitant medication that is prohibited in this trial, including the requirement for Vaughan Williams Class I and III anti-arrhythmic drugs, that would preclude the use of study drug during the planned study period, i.e. patients have to stop others antiarrhythmics such as Vaughan Williams Class I and III anti-arrhythmic drugs, for example amiodarone, flecamide, propafenone, quinidine, disopyramide, dofetilide, solatol.
# • Plasma potassium<3.5 mmol/l (as anti-arrhythmic drugs can be arrhythmogenic in patients with hypokalemia, this must be corrected prior to randomization. • A calculated GFR at baseline<10 ml/min using the Cockroft Gault formula (GFR [ml/min]=(140−AGE [years]*WEIGHT [kilograms]*CONSTANT/CREATININE [μmol/L], where CONSTANT is […]).
# Furthermore, the concomitant use of grapefruit juice and all potent inhibitors of CYP3A4 such as ketoconazole were prohibited.
# Treatment was initiated using tablets containing either the placebo or an amount of dronedarone hydrochloride corresponding to 400 mg of dronedarone at a rate of twice a day with the morning and evening meal and more specifically at a rate of one tablet in the morning during or shortly after breakfast and one tablet in the evening during or shortly after dinner. […]
# [1] = III.30 cardiovascular hospitalization, Dronedarone N = 2301
# [2] = III.31 hospitalization not due to supraventricular arrhythmia, Dronedarone N = 2301
smiles,measurement,setting,value
"CCCCc1oc2ccc(NS(C)(=O)=O)cc2c1C(=O)c1ccc(OCCCN(CCCC)CCCC)cc1 [dronedarone hydrochloride, 2-n-Butyl-3-[4-(3-di-n-butylaminopropoxy)benzoyl]-5-methylsulphonamidobenzofuran]",HR (95% CI): cardiovascular hospitalization and death,Age ≧75 years (N 1925),"0.75 (0.65, 0.87)"
same,decrease of cardiovascular hospitalization and death,Age ≧75 years,25%
same,HR (95% CI): cardiovascular hospitalization and death,Diabetes (N 945),"0.75 (0.61, 0.91)"
same,decrease of cardiovascular hospitalization and death,Diabetes,25%
same,HR (95% CI): cardiovascular hospitalization and death,Hypertension (N 3995),"0.77 (0.69, 0.85)"
same,decrease of cardiovascular hospitalization and death,Hypertension,23%
same,"Any cardiovascular hospitalization, number",[1],675
same,"Any cardiovascular hospitalization, percent",[1],(29.3%)
same,"Atherosclerosis related (if not otherwise specified), number",[1],11
same,"Atherosclerosis related (if not otherwise specified), percent",[1],(0.5%)
same,"Atrial fibrillation and other supraventricular rhythm disorders, number",[1],296
same,"Atrial fibrillation and other supraventricular rhythm disorders, percent",[1],(12.9%)
same,"Blood pressure related (hypotension, hypertension; except syncope), number",[1],21
same,"Blood pressure related (hypotension, hypertension; except syncope), percent",[1],(0.9%)
same,"Cardiovascular infection, number",[1],4
same,"Cardiovascular infection, percent",[1],(0.2%)
same,"Cardiovascular surgery except cardiac transplantation, number",[1],21
same,"Cardiovascular surgery except cardiac transplantation, percent",[1],(0.9%)
same,"Implantation of a pacemaker, ICD or any other cardiac device, number",[1],32
same,"Implantation of a pacemaker, ICD or any other cardiac device, percent",[1],(1.4%)
same,"Major bleeding (requiring two or more units of blood or any intracranial hemorrhage), number",[1],21
same,"Major bleeding (requiring two or more units of blood or any intracranial hemorrhage), percent",[1],(0.9%)
same,"Myocardial infarction or unstable angina, number",[1],48
same,"Myocardial infarction or unstable angina, percent",[1],(2.1%)
same,"Non-fatal cardiac arrest, number",[1],3
same,"Non-fatal cardiac arrest, percent",[1],(0.1%)
same,"Other ventricular arrhythmia, number",[1],1
same,"Other ventricular arrhythmia, percent",[1],(<0.1%)
same,"Pulmonary embolism or deep vein thrombosis, number",[1],10
same,"Pulmonary embolism or deep vein thrombosis, percent",[1],(0.4%)
same,"Stable angina pectoris or atypical chest pain, number",[1],45
same,"Stable angina pectoris or atypical chest pain, percent",[1],(2.0%)
same,"Syncope, number",[1],21
same,"Syncope, percent",[1],(0.9%)
same,"TIA or stroke (except intracranial hemorrhage), number",[1],28
same,"TIA or stroke (except intracranial hemorrhage), percent",[1],(1.2%)
same,"Transcutaneous coronary, cerebrovascular or peripheral procedure, number",[1],27
same,"Transcutaneous coronary, cerebrovascular or peripheral procedure, percent",[1],(1.2%)
same,"Ventricular extrasystoles, number",[1],1
same,"Ventricular extrasystoles, percent",[1],(<0.1%)
same,"Ventricular fibrillation, number",[1],1
same,"Ventricular fibrillation, percent",[1],(<0.1%)
same,"Ventricular tachycardia (non-sustained and sustained), number",[1],6
same,"Ventricular tachycardia (non-sustained and sustained), percent",[1],(0.3%)
same,"Worsening heart failure, including pulmonary edema or dyspnea of cardiac origin, number",[1],78
same,"Worsening heart failure, including pulmonary edema or dyspnea of cardiac origin, percent",[1],(3.4%)
same,"Any non-AF cardiovascular hospitalization, number",[2],438
same,"Any non-AF cardiovascular hospitalization, percent",[2],(19.0%)
same,"Atherosclerosis related (if not otherwise specified), number",[2],11
same,"Atherosclerosis related (if not otherwise specified), percent",[2],(0.5%)
same,"Blood pressure (hypotension, hypertension, not syncope), number",[2],25
same,"Blood pressure (hypotension, hypertension, not syncope), percent",[2],(1.1%)
same,"Cardiovascular infection, number",[2],4
same,"Cardiovascular infection, percent",[2],(0.2%)
same,"Cardiovascular surgery except cardiac transplantation, number",[2],24
same,"Cardiovascular surgery except cardiac transplantation, percent",[2],(1.0%)
same,"Implantation of a pacemaker, ICD or any other cardiac device, number",[2],46
same,"Implantation of a pacemaker, ICD or any other cardiac device, percent",[2],(2.0%)
same,"Major bleeding (requiring two or more units of blood or any intracranial hemorrhage), number",[2],27
same,"Major bleeding (requiring two or more units of blood or any intracranial hemorrhage), percent",[2],(1.2%)
same,"Myocardial infarction or unstable angina, number",[2],52
same,"Myocardial infarction or unstable angina, percent",[2],(2.3%)
same,"Non-fatal cardiac arrest, number",[2],3
same,"Non-fatal cardiac arrest, percent",[2],(0.1%)
same,"Other ventricular arrhythmia, number",[2],1
same,"Other ventricular arrhythmia, percent",[2],(<0.1) %
same,"Pulmonary embolism or deep vein thrombosis, number",[2],11
same,"Pulmonary embolism or deep vein thrombosis, percent",[2],(0.5%)
same,"Stable angina pectoris or atypical chest pain, number",[2],51
same,"Stable angina pectoris or atypical chest pain, percent",[2],(2.2%)
same,"Syncope, number",[2],23
same,"Syncope, percent",[2],(1.0%)
same,"TIA or stroke (except intracranial hemorrhage), number",[2],32
same,"TIA or stroke (except intracranial hemorrhage), percent",[2],(1.4%)
same,"Transcutaneous coronary, cerebrovascular or peripheral procedure, number",[2],31
same,"Transcutaneous coronary, cerebrovascular or peripheral procedure, percent",[2],(1.3%)
same,"Ventricular extrasystoles, number",[2],1
same,"Ventricular extrasystoles, percent",[2],(<0.1) %
same,"Ventricular fibrillation, number",[2],1
same,"Ventricular fibrillation, percent",[2],(<0.1) %
same,"Ventricular tachycardia (non-sustained and sustained), number",[2],6
same,"Ventricular tachycardia (non-sustained and sustained), percent",[2],(0.3%)
same,"Worsening heart failure, including pulmonary edema or dyspnea of cardiac origin, number",[2],89
same,"Worsening heart failure, including pulmonary edema or dyspnea of cardiac origin, percent",[2],(3.9%)
same,HR (95% CI): cardiovascular hospitalization and death,LVEF <0.40 (N 338),"0.72 (0.51, 1.00)"
same,decrease of cardiovascular hospitalization and death,LVEF <0.40,28%
